Assay: Serum amikacin after single oral administration by gavage
Type: in vivo, male Harlan Sprague Dawley albino rats
Settings: rat, 20 mg amikacin per rat
Method: The lipid-only, 1:1 lipid/polymer and the polymer-only pharmaceutical compositions with amikacin encapsulated therein, or unencapsulated amikacin as a solution at pH 8 was administered orally by gavage to 300 g male Harlan Sprague Dawley albino rats. The number of animals per group was six. The dose was 20 mg per rat and the volume was 2 mL. Serum was collected via venipuncture (saphenous vein) from unanesthetized animals at 15, 45, 90 min., 3, 8, 24, and 48 hours. The specimens were kept at −40° C. until analysis.
The concentration of amikacin in serum was determined using a competitive particle concentration fluorescence immunoassay. Polystyrene beads (Idexx Research Product Division, Memphis, Tenn.) were first coated with anti-amikacin antibody (The Binding Site, San Diego, Calif.). The beads were incubated with a combination of fluorescent-labeled amikacin (The Binding Site) and serum containing amikacin which compete for the anti-amikacin antibody sites on the beads. The amount of fluorescent-labeled amikacin bound to the beads was measured by a fluorescence concentration analyzer (Idexx Research Product Division) which is inversely proportional to the amikacin concentration in serum.

peak level of the concentration of amikacin in circulation: 1.82 ± 0.73 µg/mL | time at which peak circulatory levels were reached: 45 min
SMILES: NCC[C@H](O)C(=O)N[C@@H]1C[C@H](N)[C@@H](O[C@H]2O[C@H](CN)[C@@H](O)[C@H](O)[C@H]2O)[C@H](O)[C@H]1O[C@H]1O[C@H](CO)[C@@H](O)[C@H](N)[C@H]1O [unencapsulated amikacin, amikacin]

Reference: patent publication US6793938B2, “Biodegradable compositions for the controlled release of encapsulated substances” (Skye Pharma, Inc., priority 1998, dated 2004)
